Common to all, as to format: in vitro ADME
One data set in a line: Plasma stability, human. The note with it: both sexes; for half-life at 3 μM: human plasma, incubation up to 120 min, read-out: plasma stability T1/2, human; for remaining at 120 min, 3 µM: plasma, over the assay time course. How it is done:
(§1) Human plasma (lithium heparin (LiHep) mixed, gender pooled, 0.2 μm filtered) and mouse plasma (BALB/C, LiHep mixed, male pooled, 0.2 μm filtered) were purchased from BioIVT. Procaine (Sigma-Aldrich) served as a positive control for both human and mouse plasma experiments. Test compounds and positive controls were initially dissolved in DMSO to make 10 mM stock solutions. The solutions of test and control compounds were then further diluted in 70% MeOH/H2O or 100% MeCN to 500 μM. Next, the human or mouse plasma (994 μL) was aliquoted into 1.5 mL Eppendorf tubes with duplicates (reactions A and B) being prepared for each compound. The plasma was then incubated at 37 °C for 10 min. Afterward, the reaction was initiated by the addition of the test compound (6 μL of 500 μM solution) and further incubated at 37 °C for the designated time course of the study. This procedure provided duplicate experiments with a final volume of 1000 μL (<0.6% organic solvent content) and a final test compound concentration of 3 μM. Aliquots (100 μL) were removed from each reaction mixture at 0, 15, 30, 60, and 120 min time intervals and quenched with 150 μL of cold ISTD solution (2 μM 7-ethoxy-d5-coumarin in MeOH or MeCN). Quenched aliquots were then centrifuged at 15,000 g for 30–45 min, and the resulting supernatants (∼70 μL) were withdrawn and placed in LC-MS vials to be analyzed by LC-MS/MS (Agilent G6460C QQQ MS coupled with an Infinity II 1260 HPLC). Each test compound was run in tandem with positive and negative control experiments for quality assurance. The positive control reaction was conducted at a final volume of 1000 μL for a single run at each time point. Finally, the negative control experiment was conducted with test compounds in DPBS (143 μL) and analyzed at the 120 min time point.
(§2) For both LM and plasma assays, each data point was analyzed in triplicate using between blank washes to avoid carry over and to equilibrate the column for the subsequent runs. Averages of these triplicates for individual compounds at each time point were then normalized to the data at 0 min, representing 100% of the test compound remaining or 0% metabolism. Half-lives (t1/2) were calculated by plotting ln of % test compound remaining versus time and performing linear regression to determine slope. Slope = −k and t1/2 = 0.693/k for first-order kinetics (see Figures S5 and S6 for a representative example).

A short description of data set [1]: Liver microsome stability, human. The note with it: for microsomal CLint at 3 μM: human liver microsomes; for half-life at 3 μM / remaining at 0.5 h, 3 µM: liver microsomes; for half-life at 3 μM: incubation up to 30 min, read-out: liver microsome stability T1/2, human; for remaining at 0.5 h, 3 µM: over the assay time course (30 min), read-out: % remaining, human LMs. The method, then:
Human liver microsomes (HLMs, 20 mg/mL) and CD-1 mouse liver microsomes (MLMs, 20 mg/mL) were purchased from Xenotech. NADPH was purchased from Sigma-Aldrich and prepared in 10 mM stock solutions of distilled H2O (Invitrogen UltraPure). Verapamil and diphenhydramine were both purchased from Sigma-Aldrich and served as positive controls for HLM and MLM stability, respectively. Test compounds and positive controls were initially dissolved in DMSO to make 10 mM stock solutions. Sample solutions were then further diluted in 70% MeOH/H2O or 100% MeCN to 500 μM. Next, the reactions were prepared by mixing human or mouse liver microsomes (55 μL) with potassium phosphate buffer (100 mM, […]) in 1.5 mL Eppendorf tubes. The test compounds (6.6 μL of 500 μM solution) were subsequently added to the suspensions, and the reaction mixtures were incubated at 37 °C for 5 min. Afterward, the liver microsome reactions were initiated with 110 μL of 10 mM NADPH and further incubated at 37 °C for the designated time course of the study. This procedure provided experiments with a final volume of 1100 μL (<0.6% organic solvent content), a concentration for HLMs and MLMs of 1 mg/mL, and a final test compound concentration of 3 μM. Aliquots (100 μL) were removed from each reaction mixture in duplicate at 0, 5, 10, 15, and 30 min time intervals and quenched with 100 μL of cold internal standard solution (ISTD, 2 μM 7-ethoxy-d5-coumarin in MeOH or MeCN). Quenched aliquots were then centrifuged at 12 500 g for 5–10 min, and the resulting supernatants were withdrawn and placed in LC-MS vials to be analyzed by LC-MS/MS (Agilent G6460C QQQ MS coupled with an Infinity II 1260 HPLC). Each test compound was run in tandem with positive and negative control experiments for quality assurance. Positive control reactions were conducted at a final volume of 550 μL for a single run at each time point. Lastly, the negative control experiment was conducted with test compounds and liver microsomes in the absence of NADPH (150 μL) and analyzed at the 30 min time point.
as §2

Another data set in a line: Plasma stability, mouse. To be noted: for half-life at 3 μM / remaining at 120 min, 3 µM: male, BALB/C, mouse; for half-life at 3 μM: mouse plasma, incubation up to 120 min, read-out: plasma stability T1/2, mouse; for remaining at 120 min, 3 µM: plasma, over the assay time course. The method, then:
as §1, §2

With `O=C(O)CCC(=O)N1N=C(c2c(-c3ccc(Cl)cc3)c3ccccc3[nH]c2=O)CC1c1ccc(Cl)cc1` (stereo not drawn) [2a], in the data set “Plasma stability, human”, the half-life at 3 μM was more than 120 min and the fraction remaining at 120 min, 3 µM is more than 95%. In addition, in data set [1], the intrinsic metabolic clearance (microsomal CLint) at 3 μM is less than 23 µL/min/mg; the half-life at 3 μM was more than 30 min; the fraction remaining at 0.5 h, 3 µM was more than 95%. Further, in the data set “Plasma stability, mouse”, the half-life at 3 μM was more than 120 min and the fraction remaining at 120 min, 3 µM is more than 95%.

With `O=C(O)CC(F)(F)C(=O)N1N=C(c2c(-c3ccc(Cl)cc3)c3ccccc3[nH]c2=O)CC1c1ccc(Cl)cc1` (stereo not drawn) [2i], in “Plasma stability, human”, the half-life at 3 μM is more than 120 min and the fraction remaining at 120 min, 3 µM was more than 95%. Further, in data set [1], the microsomal CLint at 3 μM is less than 23 µL/min/mg; the half-life at 3 μM was more than 30 min; the fraction remaining at 0.5 h, 3 µM was more than 95%. Further, in the data set “Plasma stability, mouse”, the half-life at 3 μM is more than 120 min and the share remaining at 120 min, 3 µM is more than 95%.

Consider `NC(=O)CC(F)(F)C(=O)N1N=C(c2c(-c3ccc(Cl)cc3)c3ccccc3[nH]c2=O)CC1c1ccc(Cl)cc1` (stereo not drawn) [2k], for which the half-life at 3 μM in “Plasma stability, human” is more than 120 min. In data set [1], the microsomal CLint at 3 μM was less than 23 µL/min/mg; the half-life at 3 μM was more than 30 min; the share remaining at 0.5 h, 3 µM was more than 90%. Also, the “metabolized in mouse plasma (% of prodrug)” value in the data set “Plasma stability, mouse” (after 2 h) is on record as 42%. Besides, the half-life at 3 μM in the data set “Plasma stability, mouse” is more than 120 min.

On to `CCOC(=O)CC(F)(F)C(=O)N1N=C(c2c(-c3ccc(Cl)cc3)c3ccccc3[nH]c2=O)CC1c1ccc(Cl)cc1` (stereo not drawn) [2l], for which the half-life at 3 μM was more than 120 min in “Plasma stability, human”; 3.6 min in data set [1]; 4.2 min in the data set “Plasma stability, mouse”. Further, the microsomal CLint at 3 μM in data set [1] was found to be 193 µL/min/mg.

For the compound `CC(C)OC(=O)CC(F)(F)C(=O)N1N=C(c2c(-c3ccc(Cl)cc3)c3ccccc3[nH]c2=O)CC1c1ccc(Cl)cc1` (stereo not drawn) [2m], the half-life at 3 μM in the data set “Plasma stability, human” was more than 120 min; in data set [1] it was 4 min; in the data set “Plasma stability, mouse”, 37 min. The compound further had an intrinsic metabolic clearance (microsomal CLint) at 3 μM in data set [1] of 173 µL/min/mg.

Regarding `O=C(CC(F)(F)C(=O)N1N=C(c2c(-c3ccc(Cl)cc3)c3ccccc3[nH]c2=O)CC1c1ccc(Cl)cc1)OCC1CC1` (stereo not drawn) [2n], the half-life at 3 μM in the data set “Plasma stability, human” is more than 120 min; in data set [1], 2.4 min; in “Plasma stability, mouse” it was 1.3 min. The microsomal CLint at 3 μM in data set [1] amounted to 289 µL/min/mg.

With `CC(C)(C)COC(=O)CC(F)(F)C(=O)N1N=C(c2c(-c3ccc(Cl)cc3)c3ccccc3[nH]c2=O)CC1c1ccc(Cl)cc1` (stereo not drawn) [2o], the half-life at 3 μM was more than 120 min in “Plasma stability, human”; 3.7 min in data set [1]; 4 min in “Plasma stability, mouse”. The intrinsic clearance (microsomal CLint) at 3 μM in data set [1] is 187 µL/min/mg.

For the compound `O=C(CC(F)(F)C(=O)N1N=C(c2c(-c3ccc(Cl)cc3)c3ccccc3[nH]c2=O)CC1c1ccc(Cl)cc1)OCc1ccccc1` (stereo not drawn) [2p], the half-life at 3 μM in the data set “Plasma stability, human” is more than 120 min; in data set [1], 6.6 min; in the data set “Plasma stability, mouse”, 1.4 min. The intrinsic clearance (microsomal CLint) at 3 μM in data set [1] was 105 µL/min/mg.

As to `CNC(=O)CC(F)(F)C(=O)N1N=C(c2c(-c3ccc(Cl)cc3)c3ccccc3[nH]c2=O)CC1c1ccc(Cl)cc1` (stereo not drawn) [2q], the half-life at 3 μM in “Plasma stability, human” was more than 120 min; in data set [1] it was not above 7 min; in the data set “Plasma stability, mouse”, more than 120 min. For the same compound, in data set [1], the intrinsic metabolic clearance (microsomal CLint) at 3 μM came out at 104 µL/min/mg.

For the compound `CN(C)C(=O)CC(F)(F)C(=O)N1N=C(c2c(-c3ccc(Cl)cc3)c3ccccc3[nH]c2=O)CC1c1ccc(Cl)cc1` (stereo not drawn) [2r], the half-life at 3 μM in “Plasma stability, human” is more than 120 min; in data set [1], not above 7 min; in the data set “Plasma stability, mouse”, more than 120 min. This compound also showed a microsomal CLint at 3 μM in data set [1] of 165 µL/min/mg.

As usually defined, the fraction remaining is what is left of the initial amount, in per cent. The microsomal CLint is the rate of metabolic loss divided by the concentration. A higher microsomal CLint goes with rapid turnover.

For the origin of these results see PMC10485906, “Development of a Dihydroquinoline–Pyrazoline GluN2C/2D-Selective Negative Allosteric Modulator of the N-Methyl-D-aspartate Receptor” (ACS Chemical Neuroscience, 2023).
